Source: ChEMBL document CHEMBL4393668, “Discovery and Characterization of XY101, a Potent, Selective, and Orally Bioavailable RORγ Inverse Agonist for Treatment of Castration-Resistant Prostate Cancer” (J Med Chem, 2019)

Assays:
[1] = biological target: T1, Nuclear receptor ROR-gamma (Homo sapiens, UniProt P51449); assay: Inverse agonist activity at Gal4-fused RORgamma LBD (unknown origin) expressed in 293T cells measured after 24 hrs by dual-luciferase reporter gene assay; format: cell-based
T1 sequence (P51449 whole entry): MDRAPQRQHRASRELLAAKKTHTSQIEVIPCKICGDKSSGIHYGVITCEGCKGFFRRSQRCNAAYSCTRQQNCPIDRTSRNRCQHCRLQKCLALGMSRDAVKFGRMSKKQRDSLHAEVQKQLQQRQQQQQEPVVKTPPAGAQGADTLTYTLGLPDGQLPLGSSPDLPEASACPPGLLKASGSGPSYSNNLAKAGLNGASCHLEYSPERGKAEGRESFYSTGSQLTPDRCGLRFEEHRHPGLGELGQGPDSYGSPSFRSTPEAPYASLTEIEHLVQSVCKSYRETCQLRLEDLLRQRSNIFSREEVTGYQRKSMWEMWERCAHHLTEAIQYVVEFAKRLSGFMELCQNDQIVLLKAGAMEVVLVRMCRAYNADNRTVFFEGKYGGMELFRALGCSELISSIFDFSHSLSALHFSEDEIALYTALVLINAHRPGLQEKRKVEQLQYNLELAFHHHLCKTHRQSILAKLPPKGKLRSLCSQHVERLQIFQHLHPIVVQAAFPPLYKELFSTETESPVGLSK

[2] = biological target: T1, Nuclear receptor ROR-gamma; assay: Inverse agonist activity at human N-terminal His6-tagged RORgamma (262 to 507 residues) expressed in Escherichia coli BL21 (DE3) assessed as inhibition of biotinylated co-activator SRC1-4 peptide recruitment by alphascreen assay
[3] = biological target: T2, Nuclear receptor ROR-gamma (Homo sapiens) (UniProt P51449)
T2 sequence (whole entry): T1 sequence (P51449 whole entry)

[4] = biological target: T3, Nuclear receptor ROR-alpha (Homo sapiens, UniProt P35398)
T3 sequence (P35398 whole entry): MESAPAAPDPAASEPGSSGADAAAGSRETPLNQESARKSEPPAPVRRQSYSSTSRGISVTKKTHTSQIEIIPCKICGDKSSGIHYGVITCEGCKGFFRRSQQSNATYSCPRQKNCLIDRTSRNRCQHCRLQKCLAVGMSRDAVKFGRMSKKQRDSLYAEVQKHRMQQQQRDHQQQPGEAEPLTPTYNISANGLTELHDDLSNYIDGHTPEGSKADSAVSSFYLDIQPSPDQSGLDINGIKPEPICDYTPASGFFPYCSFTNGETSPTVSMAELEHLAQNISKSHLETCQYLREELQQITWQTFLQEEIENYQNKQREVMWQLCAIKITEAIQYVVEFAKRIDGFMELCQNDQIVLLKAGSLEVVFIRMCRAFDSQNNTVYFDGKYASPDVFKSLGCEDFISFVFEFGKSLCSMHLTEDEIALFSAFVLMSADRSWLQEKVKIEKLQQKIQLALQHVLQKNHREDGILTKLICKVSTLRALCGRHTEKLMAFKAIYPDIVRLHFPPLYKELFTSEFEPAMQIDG

[5] = biological target: T4, Nuclear receptor ROR-beta (Homo sapiens, UniProt Q92753)
T4 sequence (Q92753 whole entry): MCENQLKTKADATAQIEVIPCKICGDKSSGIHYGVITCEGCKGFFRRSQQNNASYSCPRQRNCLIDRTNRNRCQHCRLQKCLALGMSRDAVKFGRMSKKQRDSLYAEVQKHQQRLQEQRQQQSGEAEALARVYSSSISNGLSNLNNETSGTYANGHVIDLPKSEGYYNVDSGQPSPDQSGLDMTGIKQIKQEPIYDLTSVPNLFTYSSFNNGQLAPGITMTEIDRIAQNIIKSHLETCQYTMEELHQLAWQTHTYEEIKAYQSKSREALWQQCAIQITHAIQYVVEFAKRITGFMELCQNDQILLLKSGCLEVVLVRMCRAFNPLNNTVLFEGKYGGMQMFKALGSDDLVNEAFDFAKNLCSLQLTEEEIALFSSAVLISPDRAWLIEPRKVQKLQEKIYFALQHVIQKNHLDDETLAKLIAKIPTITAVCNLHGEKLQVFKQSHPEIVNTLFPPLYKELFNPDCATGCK

[6] = biological target: T5, Oxysterols receptor LXR-alpha (Homo sapiens, UniProt Q13133)
T5 sequence (Q13133 whole entry): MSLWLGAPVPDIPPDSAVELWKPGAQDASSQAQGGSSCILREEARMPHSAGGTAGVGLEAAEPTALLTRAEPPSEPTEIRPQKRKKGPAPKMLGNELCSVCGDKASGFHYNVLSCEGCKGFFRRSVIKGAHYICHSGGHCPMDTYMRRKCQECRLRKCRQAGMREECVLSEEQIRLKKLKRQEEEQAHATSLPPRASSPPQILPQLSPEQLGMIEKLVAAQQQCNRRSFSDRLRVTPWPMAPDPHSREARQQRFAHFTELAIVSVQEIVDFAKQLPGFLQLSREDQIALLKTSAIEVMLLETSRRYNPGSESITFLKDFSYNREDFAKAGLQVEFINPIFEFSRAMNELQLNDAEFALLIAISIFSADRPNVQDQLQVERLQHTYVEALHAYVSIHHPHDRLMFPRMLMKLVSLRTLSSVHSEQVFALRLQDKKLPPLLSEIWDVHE

Bile acid receptor [7] = biological target: T6, Bile acid receptor (Homo sapiens, UniProt Q96RI1)
T6 sequence (Q96RI1 whole entry): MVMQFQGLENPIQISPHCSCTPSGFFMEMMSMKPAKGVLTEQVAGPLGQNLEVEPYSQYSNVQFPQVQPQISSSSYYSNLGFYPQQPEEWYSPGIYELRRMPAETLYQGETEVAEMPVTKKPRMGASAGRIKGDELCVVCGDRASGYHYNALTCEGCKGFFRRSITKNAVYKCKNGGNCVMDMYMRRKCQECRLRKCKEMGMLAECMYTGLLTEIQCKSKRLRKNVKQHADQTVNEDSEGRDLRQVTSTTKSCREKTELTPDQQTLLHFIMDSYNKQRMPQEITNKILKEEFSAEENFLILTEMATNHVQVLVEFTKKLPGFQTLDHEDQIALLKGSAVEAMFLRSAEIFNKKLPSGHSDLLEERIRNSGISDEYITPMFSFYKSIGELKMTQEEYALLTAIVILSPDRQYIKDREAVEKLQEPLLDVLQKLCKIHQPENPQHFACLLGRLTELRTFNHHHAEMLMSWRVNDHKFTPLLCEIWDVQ

[8] = rat, in vivo, iv, 2 mg/kg
Description: Apparent volume of distribution in Sprague-Dawley rat at 2 mg/kg, iv

in vivo [9] = conditions: Sprague-Dawley, rat, iv, 2 mg/kg
in vivo [10] = conditions: Sprague-Dawley, rat, iv, 2 mg/kg; remark: listed apart in the source
in vivo [11] = conditions: Sprague-Dawley, rat, iv, 2 mg/kg; remark: listed apart in the source
in vivo [12] = conditions: Sprague-Dawley, rat, iv, 2 mg/kg; remark: listed apart in the source
Description: Half life in Sprague-Dawley rat at 2 mg/kg, iv

in vivo [13] = conditions: Sprague-Dawley, rat, po, 10 mg/kg
in vivo [14] = conditions: Sprague-Dawley, rat, po, 10 mg/kg; remark: listed apart in the source
in vivo [15] = conditions: Sprague-Dawley, rat, po, 10 mg/kg; remark: listed apart in the source
in vivo [16] = conditions: Sprague-Dawley, rat, po, 10 mg/kg; remark: listed apart in the source
in vitro = conditions: rat, liver microsomes
Description: Stability in rat liver microsomes assessed as parent compound remaining at 10 uM measured after 60 mins by LC-MS/MS analysis

[17] = biological target: T2, Nuclear receptor ROR-gamma (Homo sapiens); assay: Inverse agonist activity at Gal4-fused RORgamma LBD (unknown origin) expressed in 293T cells measured after 24 hrs by dual-luciferase reporter gene assay relative to control; format: cell-based
[18] = biological target: T7, Bile acid receptor (Homo sapiens) (UniProt Q96RI1); assay: Inverse agonist activity at Gal4-fused FXR LBD (unknown origin) expressed in 293T cells measured after 24 hrs by dual-luciferase reporter gene assay relative to control; format: cell-based
T7 sequence (whole entry): T6 sequence (Q96RI1 whole entry)

[19] = biological target: T3, Nuclear receptor ROR-alpha; remark: listed apart in the source
Bile acid receptor [20] = biological target: T6, Bile acid receptor; remark: listed apart in the source

SMILES | IC50 [1] [nM] | ΔTm [3] [°C] | further results
COC(=O)c1ccc(CS(=O)(=O)Nc2ccc(-c3ccc(C(O)(C(F)(F)F)C(F)(F)F)cc3F)cc2)cc1 | 90 | 8 | IC50 [2]: 4830 nM; IC50 [4]: Not Active; IC50 [5]: Not Active; IC50 [6]: Not Active; IC50 (Bile acid receptor [7]): Not Active
COC(=O)CCCC(=O)Nc1ccc(-c2ccc(C(O)(C(F)(F)F)C(F)(F)F)cc2F)cc1 | 930 | 5.4 | –
O=C(CCc1ccccc1)Nc1ccc(-c2ccc(C(O)(C(F)(F)F)C(F)(F)F)cc2F)cc1 | 1980 | 5.2 | –
O=C(Cc1ccccc1[N+](=O)[O-])Nc1ccc(-c2ccc(C(O)(C(F)(F)F)C(F)(F)F)cc2F)cc1 | – | 4.2 | IC50 [5]: Not Active; IC50 [6]: Not Active; IC50 (Bile acid receptor [7]): Not Active; Vz [8]: 3425 mg/kg; Cmax (in vivo [9]): 839 ng/mL; AUC(0-t) (in vivo [10]): 3340 ng·h/mL; AUC(0-inf) (in vivo [11]): 6440 ng·h/mL; half-life (in vivo [12]): 7.67 h; Cmax (in vivo [13]): 721 ng/mL; Tmax (in vivo [14]): 8 h; AUC(0-t) (in vivo [15]): 3220 ng·h/mL; bioavailability (in vivo [16]): 19%; remaining at 1 h, 10 µM (in vitro): 79%
O=[N+]([O-])c1cccc(CS(=O)(=O)Nc2ccc(-c3ccc(C(O)(C(F)(F)F)C(F)(F)F)cc3F)cc2)c1 | 1490 | 3.5 | –
Nc1ccc(CC(=O)Nc2ccc(-c3ccc(C(O)(C(F)(F)F)C(F)(F)F)cc3F)cc2)cc1 | – | 1.5 | –
O=[N+]([O-])c1ccc(CS(=O)(=O)Nc2ccc(-c3ccc(C(O)(C(F)(F)F)C(F)(F)F)cc3F)cc2)cc1 | 2220 | 1.5 | –
CC(=O)CCCC(=O)Nc1ccc(-c2ccc(C(O)(C(F)(F)F)C(F)(F)F)cc2F)cc1 | 1520 | 5 | –
O=C(O)c1ccc(CS(=O)(=O)Nc2ccc(-c3ccc(C(O)(C(F)(F)F)C(F)(F)F)cc3F)cc2)cc1 | – | 0 | Activity [17]: 23%
CNC(=O)c1ccc(CS(=O)(=O)Nc2ccc(-c3ccc(C(O)(C(F)(F)F)C(F)(F)F)cc3F)cc2)cc1 | 8050 | 0 | –
O=C(Cc1ccc([N+](=O)[O-])cc1)Nc1ccc(-c2ccc(C(O)(C(F)(F)F)C(F)(F)F)cc2F)cc1 | – | 6 | –
CCCCC(=O)Nc1ccc(-c2ccc(C(O)(C(F)(F)F)C(F)(F)F)cc2F)cc1 | – | 6.3 | –
O=C(CCCC1CCCCC1)Nc1ccc(-c2ccc(C(O)(C(F)(F)F)C(F)(F)F)cc2F)cc1 | 1080 | 6.5 | –
CCCCCCC(=O)Nc1ccc(-c2ccc(C(O)(C(F)(F)F)C(F)(F)F)cc2F)cc1 | 820 | 5.8 | %max [18]: 93%; IC50 [2]: 5310 nM; IC50 [19]: 1740 nM; IC50 (Bile acid receptor [20]): 1250 nM; IC50 [5]: Not Active; IC50 [6]: Not Active
CS(=O)(=O)c1ccc(CS(=O)(=O)Nc2ccc(-c3ccc(C(O)(C(F)(F)F)C(F)(F)F)cc3F)cc2)cc1 | 7760 | 1 | –
COC(=O)c1cccc(CS(=O)(=O)Nc2ccc(-c3ccc(C(O)(C(F)(F)F)C(F)(F)F)cc3F)cc2)c1 | 4240 | 4 | –
COC(=O)CCC(=O)Nc1ccc(-c2ccc(C(O)(C(F)(F)F)C(F)(F)F)cc2F)cc1 | 460 | 5.2 | –
NC(=O)c1ccc(CS(=O)(=O)Nc2ccc(-c3ccc(C(O)(C(F)(F)F)C(F)(F)F)cc3F)cc2)cc1 | 8720 | 0 | –
COC(=O)c1ccccc1CS(=O)(=O)Nc1ccc(-c2ccc(C(O)(C(F)(F)F)C(F)(F)F)cc2F)cc1 | 2960 | 2 | –
Nc1ccccc1CC(=O)Nc1ccc(-c2ccc(C(O)(C(F)(F)F)C(F)(F)F)cc2F)cc1 | – | 1.5 | –
N#Cc1ccc(CS(=O)(=O)Nc2ccc(-c3ccc(C(O)(C(F)(F)F)C(F)(F)F)cc3F)cc2)cc1 | 7550 | 0 | –
O=[N+]([O-])c1ccccc1CS(=O)(=O)Nc1ccc(-c2ccc(C(O)(C(F)(F)F)C(F)(F)F)cc2F)cc1 | 7660 | 1 | –
O=C(CCC(F)(F)F)Nc1ccc(-c2ccc(C(O)(C(F)(F)F)C(F)(F)F)cc2F)cc1 | 3080 | 7.8 | –
CCCCCC(=O)Nc1ccc(-c2ccc(C(O)(C(F)(F)F)C(F)(F)F)cc2F)cc1 | 1830 | 5.9 | –
